Experimental data reported in patent publication US7713994B2 (Wyeth LLC, priority 2005, dated 2010).
Where “and” joins values, the source holds several entries; their conditions need not be identical. Equal entries are not always repeated. Where two headings read alike, the source gives them in different places.

Tests used:
BT474 = assay: Cytotoxicity assay (SRB), BT474; assay type: cell-based; settings: Homo sapiens, BT-474, 144 h, read-out: In Vitro Cellular Activity IC50 BT474
In short: (§1)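 Overnight-seeded monolayers (4000–12000 cells/well by line) receive compound in 5% FBS medium at 37 °C, 7% CO2. After 3 d, or 6 d for BT474, cellular protein is fixed with cold TCA, stained with SRB and read at 540 nm against untreated wells.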

LoVo = assay: Cytotoxicity assay (SRB), LoVo; assay type: cell-based; settings: Homo sapiens, LoVo, 72 h, read-out: In Vitro Cellular Activity IC50 LOVO
In short: as §1

cyclin E/CDK2 enzyme = target: T1, cyclin E/CDK2 enzyme (Homo sapiens, UniProt P24941); assay: CDK2 ELISA kinase assay (phospho-Rb ser 795 detection); assay type: biochemical
T1 construct: made in house; host or cells: Sf9 insect cells, recombinant baculovirus
In short: (§2)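 Inhibition was derived from A450 relative to control wells lacking compound, following an anti-phospho-Rb Ser795 sandwich of HRP detection. The reactions combined coated GST-Rb fragment, 200 μM ATP and baculovirus-expressed cyclin/CDK enzymes, incubated for 1 h at 30° C.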

[1] = I.V. and P.O. Dosing in Mice; assay type: in vivo; settings: for AUC(0-inf) / bioavailability: mouse, in vivo; for bioavailability: po 50 mg/kg vs i.v. 2 mg/kg
MCF-7 = assay: Cytotoxicity assay (SRB), MCF-7; assay type: cell-based; settings: Homo sapiens, MCF7, 72 h, read-out: In Vitro Cellular Activity IC50 MCF-7
In short: as §1

HCT-116 = assay: Cytotoxicity assay (SRB), HCT-116; assay type: cell-based; settings: Homo sapiens, HCT-116, 72 h, read-out: In Vitro Cellular Activity IC50 HCT116
In short: as §1

cyclin D1/cdk 4 enzyme = target: T2, cyclin D1/cdk 4 enzyme (Homo sapiens, UniProt P11802); assay: CDK4 ELISA kinase assay (phospho-Rb ser 795 detection); assay type: biochemical
T2 construct: made in house; host or cells: Sf9 insect cells, recombinant baculovirus
T2 sequence (P11802 whole entry, species assumed): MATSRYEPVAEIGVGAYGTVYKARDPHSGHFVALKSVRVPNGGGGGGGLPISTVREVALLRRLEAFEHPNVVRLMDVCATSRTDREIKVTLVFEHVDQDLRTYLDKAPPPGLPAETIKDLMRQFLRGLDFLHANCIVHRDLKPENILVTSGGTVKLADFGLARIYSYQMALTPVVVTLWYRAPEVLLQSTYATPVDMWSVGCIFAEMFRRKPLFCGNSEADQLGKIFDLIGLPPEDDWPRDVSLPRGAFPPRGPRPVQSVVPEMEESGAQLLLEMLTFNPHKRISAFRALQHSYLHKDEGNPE
T2 sequence (P24385 whole entry partner, species assumed): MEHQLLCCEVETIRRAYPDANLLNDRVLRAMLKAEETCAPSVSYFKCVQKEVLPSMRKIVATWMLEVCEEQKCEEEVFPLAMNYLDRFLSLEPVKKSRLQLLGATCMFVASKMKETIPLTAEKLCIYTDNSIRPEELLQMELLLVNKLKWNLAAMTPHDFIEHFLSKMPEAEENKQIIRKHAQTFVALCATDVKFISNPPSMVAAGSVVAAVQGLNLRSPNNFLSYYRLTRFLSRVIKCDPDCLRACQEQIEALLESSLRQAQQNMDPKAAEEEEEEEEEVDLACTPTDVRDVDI
In short: as §2

cyclin B/CDK1 enzyme = target: T3, cyclin B/CDK1 enzyme (Homo sapiens, UniProt P06493); assay: CDK1 ELISA kinase assay (phospho-Rb ser 795 detection); assay type: biochemical
T3 construct: purchased New England BioLabs; host or cells: Sf9 insect cells, recombinant baculovirus
T3 sequence (P06493 whole entry): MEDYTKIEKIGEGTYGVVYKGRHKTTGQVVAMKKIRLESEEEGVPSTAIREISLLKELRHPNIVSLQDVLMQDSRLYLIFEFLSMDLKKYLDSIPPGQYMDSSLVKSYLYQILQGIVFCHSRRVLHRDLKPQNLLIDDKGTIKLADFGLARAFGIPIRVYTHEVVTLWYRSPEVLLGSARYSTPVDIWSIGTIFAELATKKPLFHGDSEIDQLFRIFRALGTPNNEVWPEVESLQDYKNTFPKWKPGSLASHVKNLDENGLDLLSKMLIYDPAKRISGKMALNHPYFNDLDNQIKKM
T3 sequence (P14635 whole entry partner): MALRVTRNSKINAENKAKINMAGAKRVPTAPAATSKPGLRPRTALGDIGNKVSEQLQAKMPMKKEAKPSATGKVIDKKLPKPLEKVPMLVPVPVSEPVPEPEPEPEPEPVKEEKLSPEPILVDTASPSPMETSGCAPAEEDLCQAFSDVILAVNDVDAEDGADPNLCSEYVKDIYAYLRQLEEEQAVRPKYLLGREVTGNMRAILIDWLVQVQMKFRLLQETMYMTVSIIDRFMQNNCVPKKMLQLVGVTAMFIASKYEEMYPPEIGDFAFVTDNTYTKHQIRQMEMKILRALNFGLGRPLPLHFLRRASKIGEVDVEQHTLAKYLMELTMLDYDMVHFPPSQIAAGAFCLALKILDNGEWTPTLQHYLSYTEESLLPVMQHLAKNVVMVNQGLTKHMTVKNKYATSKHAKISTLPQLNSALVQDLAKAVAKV
In short: as §2

[2] = In Vitro Enzyme Assay, cyclin E/CDK2, read-out: CDK2 IC50
[3] = iv, 2 mg/kg, dose i.v. 2 mg/kg, read-out: aucinf obs (i.v.)
[4] = po, 50 mg/kg, dose po 50 mg/kg, read-out: aucinf obs (po)
[5] = In Vitro Enzyme Assays, 200 μM ATP, read-out: CDK4 IC50
[6] = In Vitro Enzyme Assays, read-out: CDK1 IC50
[7] = In Vitro Enzyme Assays, read-out: CDK2 IC50
[8] = dose i.v. 2 mg/kg, second value, (methocel/tween)
[9] = In Vitro Enzyme Assay, cyclin D1/cdk 4, read-out: CDK4 IC50
[10] = In Vitro Enzyme Assay, cyclin B/CDK1, read-out: CDK1 IC50

Row | Structure (SMILES) | IC50 (cyclin E/CDK2 enzyme; [2]) | Cl_obs ([1]; dose i.v. 2 mg/kg) [mL/min/kg] | Vss_obs ([1]; dose i.v. 2 mg/kg) [L/kg] | HL_Lambda_z ([1]; dose po 50 mg/kg) [h] | AUC(0-inf) [1, 3] [ng·h/mL] | AUC(0-inf) [1, 4] [ng·h/mL] | bioavailability ([1]; po, 50 mg/kg) [%] | melting point | IC50 (cyclin D1/cdk 4 enzyme; [5]) [nM] | IC50 (cyclin B/CDK1 enzyme; [6]) [nM] | IC50 (cyclin D1/cdk 4 enzyme; [9]) [nM] | IC50 (cyclin B/CDK1 enzyme; [10]) [nM] | IC50 (BT474; BT474 cells, 6 days, SRB) [nM] | IC50 (LoVo; LoVo cells, 3 days, SRB) [nM] | IC50 (MCF-7; MCF-7 cells, 3 days, SRB) [nM] | IC50 (HCT-116; HCT116 cells, 3 days, SRB) [nM] | IC50 (BT474; BT474 cells, SRB, 6 days) [nM] | IC50 (LoVo; LoVo cells, SRB, three days) [nM] | IC50 (MCF-7; MCF-7 cells, SRB, three days) [nM] | IC50 (HCT-116; HCT116 cells, SRB, three days) [nM] | further results
1 | O=C1NC(=O)c2ccc(I)cc2/C1=C/NCc1ccn(-c2ccccc2)c(=O)c1 [Example 517, (4Z)-6-Iodo-4-({[(2-oxo-1-phenyl-1,2-dihydropyridin-4-yl)methyl]amino}methylene)isoquinoline-1,3(2H,4H)-dione] | > 50000 nM and 41500 nM | 14 | 0.5 | 0.5 | 2360 | 39 | 0.07 | – | – | – | 270 | 29600 | 90 | 170 | 790 | 250 | – | – | – | – | –
2 | O=C1NC(=O)c2ccc(I)cc2/C1=C/NCc1ccn(-c2ccsc2)c(=O)c1 [Example 539, (4Z)-6-Iodo-4-[({[2-oxo-1-(3-thienyl)-1,2-dihydropyridin-4-yl]methyl}amino)methylene]isoquinoline-1,3(2H,4H)-dione] | 41500 nM | 21 | 0.3 | 0.8 | 1560 | 44 | 0.12 | – | – | – | 290 | > 50000 | – | – | – | – | – | – | – | – | IC50 (BT474): 330 nM; IC50 (LoVo): 160 nM; IC50 (MCF-7): 240 nM; IC50 (HCT-116): 340 nM
3 | CN1CCCC1c1ccc(N/C=C2\C(=O)NC(=O)c3ccc(-n4cccc4)cc32)nc1 (stereo not drawn) [Example 459] | > 50000 nM | – | – | – | – | – | – | 186 to 196 °C (dec.) | – | – | 3700 | > 50000 | 17300 | 9500 | 10700 | 13000 | – | – | – | – | –
4 | COC[C@@H]1CCCN1Cc1ccc(N/C=C2\C(=O)NC(=O)c3ccc(-c4ccc(F)cc4)cc32)cc1 [Example 299, (4Z)-6-(4-Fluorophenyl)-4-{[(4-{[(2S)-2-(methoxymethyl)pyrrolidin-1-yl]methyl}phenyl)amino]methylene}isoquinoline-1,3(2H,4H)-dione] | – | – | – | – | – | – | – | 162 to 163 °C | 190 | > 50000 | – | – | – | – | – | – | 2000 | 7700 | 800 | 3000 | IC50 (cyclin E/CDK2 enzyme; [7]): > 50000 nM
5 | C[C@@H]1CN(c2ccc(N/C=C3\C(=O)NC(=O)c4ccc(I)cc43)cc2F)C[C@H](C)N1 [Example 319, (4Z)-4-[({4-[(3R,5S)-3,5-Dimethylpiperazin-1-yl]-3-fluorophenyl}amino)methylene]-6-iodoisoquinoline-1,3(2H,4H)-dione] | – | – | – | – | – | – | – | 173 to 174 °C | 1400 | > 50000 | – | – | – | – | – | – | 3100 | 2100 | 2600 | 1500 | IC50 (cyclin E/CDK2 enzyme; [7]): > 50000 nM

Second part, led by results:

Row | IC50 (cyclin E/CDK2 enzyme; [2]) | Cl_obs ([1]; dose i.v. 2 mg/kg) [mL/min/kg] | Vss_obs ([1]; dose i.v. 2 mg/kg) [L/kg] | HL_Lambda_z ([1]; dose po 50 mg/kg) [h] | AUC(0-inf) [1, 3] [ng·h/mL] | AUC(0-inf) [1, 4] [ng·h/mL] | bioavailability ([1]; po, 50 mg/kg) [%] | melting point | IC50 (cyclin D1/cdk 4 enzyme; [5]) [nM] | IC50 (cyclin B/CDK1 enzyme; [6]) [nM] | IC50 (cyclin D1/cdk 4 enzyme; [9]) [nM] | IC50 (cyclin B/CDK1 enzyme; [10]) [nM] | Structure (SMILES) | IC50 (BT474; BT474 cells, 6 days, SRB) [nM] | IC50 (LoVo; LoVo cells, 3 days, SRB) [nM] | IC50 (MCF-7; MCF-7 cells, 3 days, SRB) [nM] | IC50 (HCT-116; HCT116 cells, 3 days, SRB) [nM] | IC50 (BT474; BT474 cells, SRB, 6 days) [nM] | IC50 (LoVo; LoVo cells, SRB, three days) [nM] | IC50 (MCF-7; MCF-7 cells, SRB, three days) [nM] | IC50 (HCT-116; HCT116 cells, SRB, three days) [nM] | further results
6 | 4700 nM | 79 | 6.7 | 2.6 | 423 | 5590 | 53 | – | – | – | – | – | O=C1NC(=O)c2ccc(I)cc2/C1=C/NCc1ccc(-c2ccoc2)c(O)c1 [Example 506, 4-[(4-Furan-3-yl-3-hydroxy-benzylamino)-methylene]-6-iodo-4H-isoquinoline-1,3-dione] | 290 | 410 | – | – | – | – | – | – | –
7 | 1200 nM | 5 | 0.2 | 7.1 | 6630 | 1040 | 0.63 | 263 to 266 °C (dec.) | – | – | – | – | CCCOc1cnc(CN/C=C2\C(=O)NC(=O)c3ccc(C4CCCC4)cc32)cc1O [Example 538, 6-Cyclopentyl-4-{[(4-hydroxy-5-propoxy-pyridin-2-ylmethyl)-amino]-methylene}-4H-isoquinoline-1,3-dione] | 60 | 70 | 300 | 150 | – | – | – | – | –
8 | – | 3 | 0.2 | 1.8 | 11000 | 17200 | 6.3 | – | 30 | 25300 | – | – | CCCOc1cnc(CNC=C2C(=O)NC(=O)c3ccc(I)cc32)cc1O [Example 364, 4-{[(4-Hydroxy-5-propoxy-pyridin-2-ylmethyl)-amino]-methylene}-6-iodo-4H-isoquinoline-1,3-dione] | – | – | – | – | 340 | 520 | 880 | 730 | IC50 (cyclin E/CDK2 enzyme; [7]): 1600 nM; Cl_obs [1, 8]: 2.1 mL/min/kg; Vss_obs [1, 8]: 0.1 L/kg; HL_Lambda_z ([1]; dose po 50 mg/kg, second value, (methocel/tween)): 2.4 h; AUC(0-inf) ([1]; iv, 2 mg/kg, dose i.v. 2 mg/kg, second value, (methocel/tween), read-out: aucinf obs (i.v.)): 15800 ng·h/mL; AUC(0-inf) ([1]; po, 50 mg/kg, dose po 50 mg/kg, second value, (methocel/tween), read-out: aucinf obs (po)): 5350 ng·h/mL; bioavailability ([1]; po, 50 mg/kg, second value, (methocel/tween)): 1.4%
9 | – | 33 | 1.5 | 6.1 | 999 | 360 | 14 | – | – | 13900 | – | – | CCCOc1ccc(CN/C=C2\C(=O)NC(=O)c3ccc(I)cc32)cc1O [Example 178, (4Z)-4-{[(3-Hydroxy-4-propoxybenzyl)amino]methylene}-6-iodoisoquinoline-1,3(2H,4H)-dione] | – | – | – | – | 620 | 740 | 1800 | 650 | –
10 | 2600 nM | 12 | 0.4 | 3.4 | 2750 | 12000 | 17 | – | – | – | 60 | 11600 | O=C1NC(=O)c2ccc(I)cc2/C1=C/NCc1ccn(-c2ccoc2)c(=O)c1 [Example 525, (4Z)-4-[({[1-(3-Furyl)-2-oxo-1,2-dihydropyridin-4-yl]methyl}amino)methylene]-6-iodoisoquinoline-1,3(2H,4H)-dione] | 140 | 450 | 710 | 710 | – | – | – | – | –
11 | 4000 nM | 140 | 4.1 | 1.9 | 238 | 1240 | 21 | – | – | – | 20 | 13100 | CC(C)(C)c1ccc2c(c1)/C(=C/NCc1ccc(-c3ccoc3)c(O)c1)C(=O)NC2=O [Example 535, 6-tert-Butyl-4-[(4-furan-3-yl-3-hydroxy-benzylamino)-methylene]-4H-isoquinoline-1,3. -dione] | 510 | 630 | 2000 | 860 | – | – | – | – | –
12 | – | – | – | – | – | – | – | 212 to 214 °C (dec.) | 28300 | > 50000 | – | – | CCCOc1ccc(CN/C=C2\C(=O)NC(=O)c3cc(OC)c(Br)cc32)cc1O [Example 246, 6-Bromo-4-[(3-hydroxy-4-propoxy-benzylamino)-methylene]-7-methoxy-4H-isoquinoline-1,3-dione] | – | – | – | – | 2000 | 37000 | > 50000 | 22000 | IC50 (cyclin E/CDK2 enzyme; [7]): > 50000 nM
